From PMC8036666, “Biological and Physico-Chemical Characteristics of Arginine-Rich Peptide Gemini Surfactants with Lysine and Cystine Spacers” (International Journal of Molecular Sciences, 2021)
Values after ≈ are worked out from the molar mass of the structure shown. Values joined by “and” are separate entries in the source; they are usually repeats but may differ in a detail not shown here. Identical values can stand only once. Each block holds one compound with its values, some of them ahead of it. Where a SMILES comes first, the peptide text is derived from it. Bridges are numbered along the chain shown (N, C = ends). Roman numbers before positions name the chains, in order. Side-chain parts run from the residue outwards. [ ]: non-standard residue; d: D form. The star is where a group is joined. Myristoyl = CCCCCCCCCCCCCC(=O)*; Lauroyl = CCCCCCCCCCCC(=O)*; Decanoyl = CCCCCCCCCC(=O)*; Nle = CCCC[C@H](N)C(=O)O; Octanoyl = CCCCCCCC(=O)*

Key:
[1] = Critical aggregation concentration by surface tension (Du Noüy ring, K100 tensiometer); type: physicochemical; details: for CAC / Surface Tension at CAC: unbuffered aqueous solution, 298 K
Method: The identity of the purified peptides was confirmed with electrospray ionization mass spectrometry (ESI-MS) in positive ion mode. Results of MS analyses and net charge are attached in Supplementary Materials (Table S1). Peptides’ hydrophobicity was evaluated by analytical reversed-phase high-performance liquid chromatography (RP-HPLC). The critical aggregation concentrations (CACs) of the lipopeptides were determined in unbuffered aqueous solution at 298 K by measuring the surface tension as a function of lipopeptide concentration. The measurements were carried out by the Du Noüy ring method on a K100 tensiometer. The surface tension data were plotted against the logarithm of lipopeptide concentration. CAC was found as the intersection of two lines being linear regression of data below and above CAC.
The critical aggregation concentration (CAC) values were determined fully automatically using a K100 tensiometer (KRUSS, Hamburg, Germany) equipped with two micro dosimeters by measuring the surface tension vs. lipopeptide concentration. The measurements were performed in unbuffered aqueous solution at 298 K using the Du Noüy ring method. The accuracy of the surface tension measurements was 0.1 mN/m. The critical aggregation concentration (CAC) was defined as the intersection of two lines fitted to the experimental data collected before and after the inflection point.

[2] = system: human red blood cells (hRBCs); test: Hemolysis assay; type: cell-based; details: red cells of human, 1 h
Method: The hemolysis assay was performed by using the method reported previously. Fresh human red blood cells (hRBCs) with anticoagulant (EDTA) were rinsed three times with a PBS by centrifugation at 800× g for 10 min and diluted with PBS. The compounds were serially diluted on a 96-well microtiter polystyrene plate, and hRBCs were added up to a final volume of 100 μL. The compound concentration ranged between 0.5 and 256 μg/mL and the final hRBCs concentration was 4% (v/v). Controls for zero (blank) and 100% hemolysis consisted of hRBCs suspended in PBS and 1% of Triton-X 100 (Carl Roth GmbH, Karlsruhe, Germany), respectively. The plate was incubated for 1 h at 37 °C and then centrifuged (800× g, 10 min, 4 °C). Subsequently, the supernatant was […] to new microtiter plates, and the absorbance at 540 nm was measured (Multiskan GO Microplate Spectrophotometer, Thermo Fisher Scientific, Vantaa, Finland). All experiments were conducted in triplicate. HC50 was calculated using an ic50.tk tool. The protocol of the study was approved by the local Bioethics Committee at the Medical University of Gdańsk (NKBBN/262/2019, approval date: 10 June 2019).

[3] = system: HaCaT cells; type: cell-based, human; details: 24 h
Method: Cells were trypsinized, and the medium was renewed 2–3 times per week. The cytotoxicity of compounds was assessed by the determination of cell metabolic activity by colorimetric CellTilter 96® Aqueous One Solution Cell Proliferation Assay (Promega, Madison, WI, USA), according to the manufacturer’s instructions. […] Every compound was medium-soluble in 37 °C; thus, the control cells were cultured with the medium. Serial dilutions of the tested compounds were always prepared prior to use. Cells were incubated with drugs for 24 h, and then, 20 μL of the CellTiter 96®AqueousOne Solution Reagent was added to each well containing cells maintained in 100 μL of culture medium.

[4] = system: Staphylococcus aureus ATCC 33591; details: ATCC 33591, 24 h
Method: The Acinetobacter baumannii ATCC BAA-1605, Enterococcus faecium ATCC 700221, Escherichia coli ML-35 ATCC 43827, Klebsiella aerogenes ATCC 13048, Klebsiella pneumoniae ATCC 700603, Pseudomonas aeruginosa ATCC 9027, Staphylococcus aureus ATCC 25923, Staphylococcus aureus ATCC 33591, Candida albicans ATCC 10231, Candida glabrata ATCC 15126, strains were acquired from the American Type Culture Collection (ATCC). All the strains were stored at −80 °C in Roti-Store cryo vials and before the tests were transferred into fresh Mueller–Hinton broth (MHB, Biocorp, Warsaw, […], Steinheim, Germany) for fungi and incubated for 24 h at 37 °C. Then, the cultures were seeded on the Mueller–Hinton agar (BioMaxima, Lublin, Poland) or Sabouraud dextrose agar (SDA, BioMaxima, Lublin, Poland) plates, respectively, and incubated as just mentioned. These agar cultures were used for further microbiological assays. […]
The MICs were determined by the broth microdilution method according to the Clinical and Laboratory Standard Institute guidelines. […] The experiments were conducted on 96-well microtiter polystyrene plates (Kartell, Noviglio, Italy). The growth was assessed visually after incubation, and the MIC was assumed as the lowest peptide concentration at which a noticeable growth of microorganisms was inhibited. All experiments were conducted in triplicate.

[5] = system: C. albicans ATCC 10231; details: ATCC 10231, 24 h
Method: (§1) The Acinetobacter baumannii ATCC BAA-1605, Enterococcus faecium ATCC 700221, Escherichia coli ML-35 ATCC 43827, Klebsiella aerogenes ATCC 13048, Klebsiella pneumoniae ATCC 700603, Pseudomonas aeruginosa ATCC 9027, Staphylococcus aureus ATCC 25923, Staphylococcus aureus ATCC 33591, Candida albicans ATCC 10231, Candida glabrata ATCC 15126, strains were acquired from the American Type Culture Collection (ATCC). All the strains were stored at −80 °C in Roti-Store cryo vials and before the tests were transferred into fresh Mueller–Hinton broth (MHB, Biocorp, Warsaw, Poland) for bacteria or RPMI-1640 (Sigma-Aldrich, Steinheim, Germany) for fungi and incubated for 24 h at 37 °C. Then, the cultures were seeded on the Mueller–Hinton agar (BioMaxima, Lublin, Poland) or Sabouraud dextrose agar (SDA, BioMaxima, Lublin, Poland) plates, respectively, and incubated as just mentioned. These agar cultures were used for further microbiological assays. Cell densities for all assays were adjusted spectrophotometrically (Multiskan GO Microplate Spectrophotometer, Thermo Fisher Scientific, Vantaa, Finland) at 600 and 530 nm for bacteria and fungi, respectively.
(§2) The MICs were determined by the broth microdilution method according to the Clinical and Laboratory Standard Institute guidelines. For this purpose, initial inoculums of bacteria (5 × 10^5 CFU/mL) in MHB and yeasts (2 × 10^3 CFU/mL) in RPMI-1640 with 2% D-glucose were exposed to the ranging concentration of lipopeptides (0.5–256 μg/mL) and incubated at 37 °C for 18 h and 24 h, respectively. The experiments were conducted on 96-well microtiter polystyrene plates (Kartell, Noviglio, Italy). The growth was assessed visually after incubation, and the MIC was assumed as the lowest peptide concentration at which a noticeable growth of microorganisms was inhibited. All experiments were conducted in triplicate.

[6] = system: C. glabrata ATCC 15126; details: ATCC 15126, 24 h
Method: as §1, §2

SMILES: CCCCCCCCCC(=O)N[C@@H](CCCNC(=N)N)C(=O)N[C@@H](CCCNC(=N)N)C(=O)NCCCC[C@H](NC(=O)[C@H](CCCNC(=N)N)NC(=O)[C@H](CCCNC(=N)N)NC(=O)CCCCCCCCC)C(N)=O [Compound B2] (Decanoyl-Arg-Arg-Lys([Arg-Arg-Decanoyl])-NH2)
CAC [1]: 3.69 mM and 3980.0 μg/mL
Surface Tension at CAC [1]: 36 mN/m
HC50 [2]: >256 µg/mL
IC50 [3]: 150.03 ± 3.15 µg/mL (≈ 139 µM)
MIC Staphylococcus aureus ATCC 33591 [4]: 1 µg/mL (≈ 0.927 µM)
MIC C. albicans ATCC 10231 [5]: 8 µg/mL (≈ 7.42 µM)
MIC C. glabrata ATCC 15126 [6]: 4 µg/mL (≈ 3.71 µM)

SMILES: CCCCCCCCCC(=O)N[C@@H](CCCNC(=N)N)C(=O)N[C@@H](CCCNC(=N)N)C(=O)N[C@@H](CSSC[C@H](NC(=O)[C@H](CCCNC(=N)N)NC(=O)[C@H](CCCNC(=N)N)NC(=O)CCCCCCCCC)C(N)=O)C(N)=O [Compound C2] (I: Decanoyl-Arg-Arg-Cys-NH2 / II: Decanoyl-Arg-Arg-Cys-NH2; disulfide I:3-II:3)
CAC [1]: 3.30 mM and 3832.7 μg/mL
Surface Tension at CAC [1]: 43 mN/m
HC50 [2]: >256 µg/mL
IC50 [3]: 231.17 ± 24.37 µg/mL (≈ 197 µM)
MIC Staphylococcus aureus ATCC 33591 [4]: 1 µg/mL (≈ 0.854 µM)
MIC C. albicans ATCC 10231 [5]: 4 µg/mL (≈ 3.41 µM)
MIC C. glabrata ATCC 15126 [6]: 8 µg/mL (≈ 6.83 µM)

SMILES: CCCCCCCC(=O)N[C@@H](CCCC)C(=O)N[C@@H](CCCNC(=N)N)C(=O)N[C@@H](CCCNC(=N)N)C(=O)NCCCC[C@H](NC(=O)[C@H](CCCNC(=N)N)NC(=O)[C@H](CCCNC(=N)N)NC(=O)[C@H](CCCC)NC(=O)CCCCCCC)C(N)=O [Compound B6] (Octanoyl-[Nle]RRK([Arg-Arg-Nle-Octanoyl])-NH2)
CAC [1]: 3.59 mM and 4482.4 μg/mL
Surface Tension at CAC [1]: 37 mN/m
HC50 [2]: >256 µg/mL
IC50 [3]: 164.17 ± 14.65 µg/mL (≈ 131 µM)
MIC Staphylococcus aureus ATCC 33591 [4]: 4 µg/mL (≈ 3.2 µM)
MIC C. albicans ATCC 10231 [5]: 16 µg/mL (≈ 12.8 µM)
MIC C. glabrata ATCC 15126 [6]: 16 µg/mL (≈ 12.8 µM)

SMILES: CCCCCCC(CCCC)C(=O)N[C@@H](CCCNC(=N)N)C(=O)N[C@@H](CCCNC(=N)N)C(=O)N[C@@H](CSSC[C@H](NC(=O)[C@H](CCCNC(=N)N)NC(=O)[C@H](CCCNC(=N)N)NC(=O)C(CCCC)CCCCCC)C(N)=O)C(N)=O (stereo partly drawn) [Compound C7]
increase in the CAC value by branching of the acyl chains ([1]; C7 compared with C3): ca. 25 fold
CAC [1]: 6.21 mM and 7628.1 μg/mL
Surface Tension at CAC [1]: 35 mN/m
HC50 [2]: >256 µg/mL
IC50 [3]: 163.98 ± 13.66 µg/mL (≈ 134 µM)
MIC Staphylococcus aureus ATCC 33591 [4]: 2 µg/mL (≈ 1.63 µM)
MIC C. albicans ATCC 10231 [5]: 16 µg/mL (≈ 13 µM)
MIC C. glabrata ATCC 15126 [6]: 16 µg/mL (≈ 13 µM)

SMILES: CCCCCCCCCCCC(=O)N[C@@H](CCCNC(=N)N)C(=O)N[C@@H](CCCNC(=N)N)C(=O)NCCCC[C@H](NC(=O)[C@H](CCCNC(=N)N)NC(=O)[C@H](CCCNC(=N)N)NC(=O)CCCCCCCCCCC)C(N)=O [Compound B3] (Lauroyl-Arg-Arg-Lys([Arg-Arg-Lauroyl])-NH2)
CAC [1]: 0.87 mM and 987.3 μg/mL
Surface Tension at CAC [1]: 41 mN/m
HC50 [2]: 56.29 ± 6.50 µg/mL
IC50 [3]: 26.42 ± 4.24 µg/mL (≈ 23.3 µM)
MIC Staphylococcus aureus ATCC 33591 [4]: 2 µg/mL (≈ 1.76 µM)
MIC C. albicans ATCC 10231 [5]: 2 µg/mL (≈ 1.76 µM)
MIC C. glabrata ATCC 15126 [6]: 2 µg/mL (≈ 1.76 µM)

SMILES: CCCCCCCCCCCCCC(=O)N[C@@H](CCCNC(=N)N)C(=O)N[C@@H](CCCNC(=N)N)C(=O)NCCCC[C@H](NC(=O)[C@H](CCCNC(=N)N)NC(=O)[C@H](CCCNC(=N)N)NC(=O)CCCCCCCCCCCCC)C(N)=O [Compound B4] (Myristoyl-Arg-Arg-Lys([Arg-Arg-Myristoyl])-NH2)
CAC [1]: 0.31 mM and 365.7 μg/mL
Surface Tension at CAC [1]: 40 mN/m
HC50 [2]: 44.12 ± 4.70 µg/mL
IC50 [3]: 32.39 ± 4.49 µg/mL (≈ 27.2 µM)
MIC Staphylococcus aureus ATCC 33591 [4]: 64 µg/mL (≈ 53.8 µM)
MIC C. albicans ATCC 10231 [5]: 4 µg/mL (≈ 3.36 µM)
MIC C. glabrata ATCC 15126 [6]: 2 µg/mL (≈ 1.68 µM)

Second part, led by results:

CAC [1]: 0.06 mM and 71.1 μg/mL
Surface Tension at CAC [1]: 47 mN/m
MIC Staphylococcus aureus ATCC 33591 [4]: 32 µg/mL (≈ 24.9 µM)
MIC C. albicans ATCC 10231 [5]: 2 µg/mL (≈ 1.56 µM)
MIC C. glabrata ATCC 15126 [6]: 1 µg/mL (≈ 0.779 µM)
SMILES: CCCCCCCCCCCCCC(=O)N[C@@H](CCCNC(=N)N)C(=O)N[C@@H](CCCNC(=N)N)C(=O)N[C@@H](CSSC[C@H](NC(=O)[C@H](CCCNC(=N)N)NC(=O)[C@H](CCCNC(=N)N)NC(=O)CCCCCCCCCCCCC)C(N)=O)C(N)=O [Compound C4] (I: Myristoyl-Arg-Arg-Cys-NH2 / II: Myristoyl-Arg-Arg-Cys-NH2; disulfide I:3-II:3)
HC50 [2]: 20.89 ± 1.06 µg/mL
IC50 [3]: 54.52 ± 15.40 µg/mL (≈ 42.5 µM)

CAC [1]: 0.25 mM and 305.4 μg/mL
Surface Tension at CAC [1]: 43 mN/m
MIC Staphylococcus aureus ATCC 33591 [4]: 4 µg/mL (≈ 3.26 µM)
MIC C. albicans ATCC 10231 [5]: 1 µg/mL (≈ 0.815 µM)
MIC C. glabrata ATCC 15126 [6]: 2 µg/mL (≈ 1.63 µM)
SMILES: CCCCCCCCCCCC(=O)N[C@@H](CCCNC(=N)N)C(=O)N[C@@H](CCCNC(=N)N)C(=O)N[C@@H](CSSC[C@H](NC(=O)[C@H](CCCNC(=N)N)NC(=O)[C@H](CCCNC(=N)N)NC(=O)CCCCCCCCCCC)C(N)=O)C(N)=O [Compound C3] (I: Lauroyl-Arg-Arg-Cys-NH2 / II: Lauroyl-Arg-Arg-Cys-NH2; disulfide I:3-II:3)
HC50 [2]: 36.24 ± 2.35 µg/mL
IC50 [3]: 119.47 ± 6.03 µg/mL (≈ 97.3 µM)
